SMILES strings stand for the structures. Counter-ions that a name gives are not always drawn. Like-named read-outs stand apart in the source and are kept apart here.

Series [1] deals with rat experimentally hypertense by aortic coarctation. As to the kind of experiment: Antihypertensive activity in the rat experimentally hypertense by aortic coarctation (conscious animal). Type of series: in vivo. To be noted: for diastolic arterial pressure / systolic arterial pressure / distolic arterial pressure: mean(SD). As for the experimental part:
The antihypertensive activity of the association of enalapril and nitrendipine was tested in comparison with each one of the isolated components in an experimental model of hypertension by arterial coarction in the rat. Measurement of the arterial pressure was carried out with the animal conscious. The doses tested were as follows: • Enalapril maleate 1 mg/kg (p.o.) • Nitrendipine 3 mg/kg (p.o.) • Enalapril maleate and Nitrendipine (1 and 3) mg/kg (p.o.) • Enalapril maleate and Nitrendipine (0.5 and 1.5) mg/kg (p.o.) The control group received the carrier (CMC Carboxymethylcellulose 1% en distilled water), the administration volume being […] (p.o.).

Series [2] deals with male patients with slight-moderate AHT. As to the kind of experiment: Placebo-controlled open clinical trial in slight-moderate AHT. It is filed as in vivo. To be noted: single-drug treatment, 5 mg once a day for 2 weeks (9 patients nitrendipine, 11 patients enalapril). As for the experimental part:
A placebo-controlled, open clinical trial was carried out in male patients with slight-moderate AHT, defined as systolic blood pressure values (SAT) between 165 and 144 mmHg and diastolic blood pressure values (DAT) between 95 and 105 mmHg, taken in decubitus position after 5 minutes' rest.

Series [3] concerns patients with congestive heart failure. To be noted: long-term treatment (over one year), cited from earlier work.
For series [4] the following is noted: at 10 minutes; stable formulation of enalapril sodium salt according to EP-A-0545194; cited from earlier work.
Where [5] appears, read: 3 mg/kg p.o., 0 minutes following administration.
Where [6] appears, read: 3 mg/kg p.o., 5 minutes following administration.
[7] abbreviates: 3 mg/kg p.o., 15 minutes following administration.
The mark [8] stands for this setting: 3 mg/kg p.o., 30 minutes following administration.
The mark [9] stands for this setting: 3 mg/kg p.o., 45 minutes following administration.
Where [10] appears, read: 3 mg/kg p.o., 60 minutes following administration.
Setting [11] is: 3 mg/kg p.o., 120 minutes following administration.
[12] abbreviates: 3 mg/kg p.o., 240 minutes following administration.
Setting [13] is: 3 mg/kg p.o., 360 minutes following administration.
Setting [14] is: 3 mg/kg p.o., 540 minutes following administration.
Setting [15] is: 1 mg/kg p.o., 0 minutes following administration.
[16] abbreviates: 1 mg/kg p.o., 5 minutes following administration.
Setting [17] is: 1 mg/kg p.o., 15 minutes following administration.
[18] abbreviates: 1 mg/kg p.o., 30 minutes following administration.
Setting [19] is: 1 mg/kg p.o., 45 minutes following administration.
Where [20] appears, read: 1 mg/kg p.o., 60 minutes following administration.
Where [21] appears, read: 1 mg/kg p.o., 120 minutes following administration.
The mark [22] stands for this setting: 1 mg/kg p.o., 240 minutes following administration.
Setting [23] is: 1 mg/kg p.o., 360 minutes following administration.
Where [24] appears, read: 1 mg/kg p.o., 540 minutes following administration.

For `CCOC(=O)C1=C(C)NC(C)=C(C(=O)OC)C1c1cccc([N+](=O)[O-])c1` (racemic) [Nitrendipine, ethyl and methyl ester of the acid 1,4-dihydro-2,6-dimethyl-4-(3-nitrophenyl)-3,5-pyridindicarboxylic], the diastolic arterial pressure in series [1] (setting [5]) was 136(5); in series [1] (setting [6]), 105(1); in series [1] (setting [7]), 83(4); in series [1] (setting [8]), 84(2); in series [1] (setting [9]) it was 88(5); in series [1] (setting [10]) it was 92(1). The diastolic arterial pressure is listed as 113(4) in series [1] (setting [11]), 128(3) in series [1] (setting [12]), 132(2) in series [1] (setting [13]) and 131(5) in series [1] (setting [14]). The systolic arterial pressure in series [1] (setting [5]) is given as 172(6); in series [1] (setting [6]), 119(2); in series [1] (setting [7]) it was 117(6); in series [1] (setting [8]), 112(4); in series [1] (setting [9]), 115(3); in series [1] (setting [10]), 119(6). Further, the systolic arterial pressure is given as 141(5) in series [1] (setting [11]), 163(2) in series [1] (setting [12]), 169(1) in series [1] (setting [13]) and 160(5) in series [1] (setting [14]). Moreover, in series [1] (oral administration, 3 mg/kg), the “return to basal values following administration” value amounted to 4 h. Further, in series [2], the “blood pressure normalized, number of patients” value was determined as 1 patients.
As for `CCOC(=O)[C@H](CCc1ccccc1)N[C@@H](C)C(=O)N1CCC[C@H]1C(=O)O` [Enalapril maleate, 1-(N-((S)-1-ethoxycarbonyl-3-fenilpropyl) -L-alanil)-L-prolina], the systolic arterial pressure is recorded as 168(6) in series [1] (setting [15]); 165(5) in series [1] (setting [16]); 144(2) in series [1] (setting [17]); 139(3) in series [1] (setting [18]); 139(6) in series [1] (setting [19]); 134(1) in series [1] (setting [20]). Besides, the systolic arterial pressure in series [1] (setting [21]) is given as 141(3); in series [1] (setting [22]), 146(1); in series [1] (setting [23]) it was 148(4); in series [1] (setting [24]), 165(6). Besides, in series [1] (oral administration, 1 mg/kg), the antihypertensive effect entry is reported as “moderate antihypertensive effect”. Besides, the “antihypertensive effect sustained following administration” value in series [1] (oral administration, 1 mg/kg) was “up to 6 hours”.
In the case of `CCOC(=O)[C@H](CCc1ccccc1)N[C@@H](C)C(=O)N1CCC[C@H]1C(=O)O` [enalapril, 1-(N-((S)-1-ethoxycarbonyl-3-fenilpropyl) -L-alanil)-L-prolina], the distolic arterial pressure in series [1] (setting [15]) is reported as 138(5); in series [1] (setting [16]), 138(3); in series [1] (setting [17]) it was 123(1); in series [1] (setting [18]), 116(4); in series [1] (setting [19]), 117(1); in series [1] (setting [20]), 109(1). The distolic arterial pressure in series [1] (setting [21]) was 116(5); in series [1] (setting [22]), 116(3); in series [1] (setting [23]), 117(2); in series [1] (setting [24]), 126(4). Besides, in series [2], the “blood pressure normalized, number of patients” value came out at 2 patients. Also, the “improvement of mortality and morbidity rates” value was “approximately 30%” in series [3] (severe heart failure (CONSENSUS)); “approximately 15%” in series [3] (slight and moderate heart failure (SOLVD)). Also, in series [4], the “dissolution rate of enalapril” value was 100%.

The values above are taken from patent publication EP0884054B9, “Fixed-dose association of an angiotensin-converting enzyme inhibitor and of a calcium channel antagonist for the treatment of cardiovascular illnesses” (Procter & Gamble Pharmaceuticals S.A.R.L., priority 1997, dated 1998).
